Test results from publication PMC7450057, “Enhancing intracellular accumulation and target engagement of PROTACs with reversible covalent chemistry” (Nature Communications, 2020).
“And” between values parts separate entries of the source, which are not always exact repeats. Equal values may be shown once.

Key:
[1] = system: MOLM-14 cells; experiment: AlamarBlue cell viability assay, MOLM-14; settings: Supplementary Figure 7, replicates
Method: The IC50 was calculated using GraphPad Prism software with a four-parameter dose-response curve fit.

[2] = target: T1, BTK-NanoLuc fusion (Homo sapiens, UniProt Q06187); experiment: NanoBRET BTK in-cell target engagement assay; type: cell-based; settings: for IC50: HEK-293 cells, BTK tracer 1.0 µM, Table 1 / Fig. 3c, triplicates, read-out: BTK TE IC50,TE; for K′P,D (relative intracellular accumulation coefficient): Kd (BTK)/IC50,TE (BTK); for intracellular accumulation of RC-1 relative to the compound: from K′P,D values, BTK (Table 1)
T1 construct: host or cells: HEK 293T/17
T1 sequence (Q06187 whole entry, the tested form may be a part): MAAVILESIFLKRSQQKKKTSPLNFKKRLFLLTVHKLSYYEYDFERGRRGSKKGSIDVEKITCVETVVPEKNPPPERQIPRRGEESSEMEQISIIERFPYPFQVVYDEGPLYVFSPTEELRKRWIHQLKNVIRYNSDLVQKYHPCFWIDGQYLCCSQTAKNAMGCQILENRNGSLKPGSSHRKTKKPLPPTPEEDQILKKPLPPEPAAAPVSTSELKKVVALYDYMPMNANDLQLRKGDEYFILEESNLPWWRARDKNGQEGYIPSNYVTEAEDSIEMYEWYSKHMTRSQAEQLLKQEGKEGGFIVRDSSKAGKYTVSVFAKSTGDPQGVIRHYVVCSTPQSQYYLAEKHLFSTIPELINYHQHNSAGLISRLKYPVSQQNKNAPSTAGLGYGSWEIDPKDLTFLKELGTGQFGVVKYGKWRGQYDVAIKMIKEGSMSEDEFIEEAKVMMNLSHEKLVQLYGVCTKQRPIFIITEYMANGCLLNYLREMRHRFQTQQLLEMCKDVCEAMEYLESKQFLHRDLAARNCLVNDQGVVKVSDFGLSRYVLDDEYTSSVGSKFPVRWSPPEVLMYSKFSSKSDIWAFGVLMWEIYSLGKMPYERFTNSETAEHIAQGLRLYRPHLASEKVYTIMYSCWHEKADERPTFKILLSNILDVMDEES
Method: The target engagement assay for BTK or CRBN was from Promega (BTK kit, Cat. No. N2500; CRBN kit, Cat. No. CS1810C136) and was performed according to the manufacture’s instruction with some modifications. Briefly, HEK 293/T17 cells (ATCC) were transiently transfected with BTK-NanoLuc® fusion vector or NanoLuc®-CRBN fusion vector (Promega) in 0.125 M CaCl2 and 1x HBS. Forty-eight hours after transfection, the cells were resuspended in Opti-MEM medium (Life Technologies, Cat. No. 11058021) at the density of 2 × 10^5 cells per mL and were plated into 96-well plates (Corning, Cat. No. CLS3600). Cells were incubated with 1.0 µM (BTK) or 0.5 µM (CRBN) NanoBRET™ Tracer and serially diluted unlabeled BTK PROTAC compounds (from 10 to 0.0032 µM, 5-fold dilution) for 2 h at 37 °С with 5% CO2 in an incubator. After 2 h incubation, the 3X Nano-Glo® Substrate with NanoLuc® extracellular inhibitor were added to cells and developed for 3 min at room temperature. BRET signals were collected using a BioTek SYNERGY H1 microplate reader equipped with a 450/80-nm BP filter for donor emission and a 610-nm LP filter for acceptor emission. BRET Ratio was calculated with the equation: [(Acceptor sample/Donor sample)–(Acceptor no tracer control/Donor no tracer control)] × 1000. The IC50 of the compound against its BTK or CRBN tracer was calculated using GraphPad Prism software.

[3] = target: T2, full-length BTK protein (Homo sapiens, UniProt Q06187); experiment: BTK binding assay (Kd, Eurofins DiscoverX); settings: for Kd: full-length BTK, standard assay buffer in the presence of DTT (6 mM) (DiMe compounds: BTK_+DTT per Supplementary Data 1), duplicates
T2 construct: Kd was measured using the full-length BTK protein by Eurofins DiscoverX; T7 phage fusion or DNA tag for qPCR (generic vendor protocol); purchased Eurofins DiscoverX
T2 sequence (Q06187 whole entry, the tested form may be a part): as above
Method: The dissociation equilibrium constant Kd was measured using the full-length BTK protein by Eurofins DiscoverX according to the following protocol: kinase-tagged T7 phage strains were prepared in an E. coli host derived from the BL21 strain. E. coli were grown to log-phase and infected with T7 phage and incubated with shaking at 32 °C until lysis. The lysates were centrifuged and filtered to remove cell debris. The remaining kinases were produced in HEK-293 cells and subsequently tagged with DNA for qPCR detection. […] The liganded beads were blocked with excess biotin and washed with blocking buffer (SeaBlock (Pierce), 1% BSA, 0.05% Tween 20, 1 mM DTT) to remove unbound ligand and to reduce non-specific binding. […] Test compounds were prepared as 111X stocks in 100% DMSO. […] The compounds were then diluted directly into the assays such that the final concentration of DMSO was 0.9%. All reactions performed in polypropylene 384-well plate. Each was a final volume of 0.02 mL. […] The kinase concentration in the eluates was measured by qPCR. For kinase-binding constant determination, an 11-point 3-fold serial dilution of each test compound was prepared in 100% DMSO at 100x final test concentration and subsequently diluted to 1x in the assay (final DMSO concentration = 1%). […] Binding constants (Kd values) were calculated with a standard dose-response curve using the Hill equation: Response=Background+Signal−Background/1+KdHillSlope/Dose^HillSlope
The Hill Slope was set to −1. Curves were fitted using a non-linear least square fit with the Levenberg-Marquardt algorithm.

Compound	Cell viability, MOML-14 ([1]; drug concentration 1.00E-05 M)	Cell viability, MOML-14 ([1]; drug concentration 1.60E-08 M)	Cell viability, MOML-14 ([1]; drug concentration 2.00E-06 M)	Cell viability, MOML-14 ([1]; drug concentration 3.20E-09 M)	Cell viability, MOML-14 ([1]; drug concentration 4.00E-07 M)	Cell viability, MOML-14 ([1]; drug concentration 6.40E-10 M)	Cell viability, MOML-14 ([1]; drug concentration 8.00E-08 M)	IC50 [2]	K′P,D (relative intracellular accumulation coefficient) [2]	intracellular accumulation of RC-1 relative to the compound [2]	Kd [3]	further results
CN(CCCC(=O)N1CCC[C@@H](n2nc(-c3ccc(Oc4ccccc4)cc3)c3c(N)ncnc32)C1)CCOCCNC(=O)CNc1ccc2c(c1)C(=O)N(C1CCC(=O)NC1=O)C2=O (stereo partly shown) [RNC-10]	20.4373 and 14.3566 and 19.5812 and 10.2077 and 15.081	105.787 and 111.889 and 72.4196 and 87.9176 and 69.5658	69.7853 and 58.8313 and 63.507 and 54.1116 and 44.6942	101.374 and 90.2665 and 79.5759 and 58.2825 and 70.4	94.3057 and 78.2807 and 83.198 and 62.2338 and 64.8242	98.3448 and 99.8376 and 85.8542 and 80.1905 and 70.3561	101.967 and 84.7346 and 87.9396 and 100.716 and 97.1814	–	–	–	–	–
CN(CCCNC(=O)CNc1cccc2c1C(=O)N(C1CCC(=O)NC1=O)C2=O)C(C)(C)/C=C/C(=O)N1CCC[C@@H](n2nc(-c3ccc(Oc4ccccc4)cc3)c3c(N)ncnc32)C1 (stereo partly shown) [IRC-1-DiMe]	–	–	–	–	–	–	–	380 nM	2.9 × 10^−2	5 folds	11 nM	Signal ([3]; BTK_+DTT, compound concentration 0.0169 nM, listed as IRC-DiMe): 3.35E-05 and 3.58E-05; Signal ([3]; BTK_+DTT, compound concentration 0.152 nM, listed as IRC-DiMe): 3.30E-05 and 3.12E-05; Signal ([3]; BTK_+DTT, compound concentration 0.457 nM, listed as IRC-DiMe): 3.59E-05 and 3.58E-05; Signal ([3]; BTK_+DTT, compound concentration 1.37 nM, listed as IRC-DiMe): 2.65E-05 and 2.79E-05; Signal ([3]; BTK_+DTT, compound concentration 4.12 nM, listed as IRC-DiMe): 2.70E-05 and 2.48E-05; Signal ([3]; BTK_+DTT, compound concentration 12.3 nM): 1.55E-05; Signal ([3]; BTK_+DTT, compound concentration 37 nM, listed as IRC-DiMe): 6.57E-06 and 5.81E-06; Signal ([3]; BTK_+DTT, compound concentration 111 nM, listed as IRC-DiMe): 1.60E-06 and 1.57E-06; Signal ([3]; BTK_+DTT, compound concentration 333 nM, listed as IRC-DiMe): 2.79E-07 and 2.98E-07; Signal ([3]; BTK_+DTT, compound concentration 1000 nM, listed as IRC-DiMe): 9.10E-08 and 8.06E-08; Signal ([3]; BTK_-DTT, compound concentration 12.3 nM): 1.59E-05
CN(CCCC(=O)N1CCC[C@@H](n2nc(-c3ccc(Oc4ccccc4)cc3)c3c(N)ncnc32)C1)CCOCCNC(=O)CNc1cccc2c1C(=O)N(C1CCC(=O)NC1=O)C2=O (stereo partly shown) [RNC-3]	41.7673 and 39.1993 and 57.4163 and 48.1542 and 48.9004	96.7473 and 87.6169 and 107.151 and 102.3 and 127.409	75.1942 and 80.0887 and 89.5483 and 81.8665 and 89.4166	75.7649 and 76.4014 and 100.083 and 102.234 and 81.9543	62.3107 and 94.9036 and 99.6225 and 103.727 and 94.5305	107.063 and 96.7253 and 127.343 and 114.679 and 82.7444	77.6963 and 91.9187 and 116.522 and 86.0147 and 77.6085	–	–	–	–	–
CN(C/C=C/C(=O)N1CCC[C@@H](n2nc(-c3ccc(Oc4ccccc4)cc3)c3c(N)ncnc32)C1)CCOCCNC(=O)CNc1cccc2c1C(=O)N(C1CCC(=O)NC1=O)C2=O (stereo partly shown) [IRC-3]	33.9254 and 29.7755 and 25.5011 and 24.5466 and 23.5092	86.2431 and 93.4971 and 75.2168 and 81.4209 and 78.2878	87.4798 and 73.7851 and 74.2831 and 71.2537 and 90.0734	87.9238 and 88.7455 and 83.4544 and 84.1599 and 82.3547	86.2555 and 86.2763 and 83.0809 and 75.6111 and 85.2388	91.0487 and 98.1035 and 82.7281 and 78.682 and 82.9771	83.1182 and 78.35 (2×) and 67.9338 and 81.6492	–	–	–	–	–
CN(CCCNC(=O)CNc1cccc2c1C(=O)N(C1CCC(=O)NC1=O)C2=O)C(C)(C)CC(C#N)C(=O)N1CCC[C@@H](n2nc(-c3ccc(Oc4ccccc4)cc3)c3c(N)ncnc32)C1 (stereo partly shown) [RNC-1-CN-DiMe]	–	–	–	–	–	–	–	930 nM	3.1 × 10^−2	5 folds	29 nM	Signal ([3]; BTK_+DTT, compound concentration 0.0169 nM, listed as RNC-CN-DiMe): 2.50E-05 and 2.61E-05; Signal ([3]; BTK_+DTT, compound concentration 0.152 nM): 3.53E-05; Signal ([3]; BTK_+DTT, compound concentration 0.457 nM, listed as RNC-CN-DiMe): 3.21E-05 and 2.23E-05; Signal ([3]; BTK_+DTT, compound concentration 1.37 nM, listed as RNC-CN-DiMe): 2.55E-05 and 2.14E-05; Signal ([3]; BTK_+DTT, compound concentration 4.12 nM, listed as RNC-CN-DiMe): 2.68E-05 and 2.21E-05; Signal ([3]; BTK_+DTT, compound concentration 12.3 nM, listed as RNC-CN-DiMe): 2.12E-05 and 1.99E-05; Signal ([3]; BTK_+DTT, compound concentration 37 nM, listed as RNC-CN-DiMe): 1.30E-05 and 9.19E-06; Signal ([3]; BTK_+DTT, compound concentration 111 nM, listed as RNC-CN-DiMe): 5.21E-06 and 4.55E-06; Signal ([3]; BTK_+DTT, compound concentration 333 nM, listed as RNC-CN-DiMe): 1.18E-06 and 1.22E-06; Signal ([3]; BTK_+DTT, compound concentration 1000 nM, listed as RNC-CN-DiMe): 2.41E-07 and 2.28E-07; Signal ([3]; BTK_-DTT, compound concentration 0.152 nM): 2.77E-05
CN(C/C=C/C(=O)N1CCC[C@@H](n2nc(-c3ccc(Oc4ccccc4)cc3)c3c(N)ncnc32)C1)CCOCCNC(=O)CNc1ccc2c(c1)C(=O)N(C1CCC(=O)NC1=O)C2=O (stereo partly shown) [IRC-10]	75.82 and 58.3378 and 68.0769 and 46.8499 and 54.5004	97.1244 and 98.6788 and 78.5933 and 90.154 and 64.4582	114.76 and 85.758 and 93.5542 and 68.0284 and 77.3303	99.6503 and 95.7157 and 83.0135 and 73.4201 and 68.8541	101.229 and 92.1212 and 88.8668 and 84.1065 and 86.0252	105.091 and 113.591 and 102.055 and 78.059 and 83.1593	111.6 and 85.6366 and 80.0019 and 73.9301 and 92.4127	–	–	–	–	–
